Data: paper PMC4933725, “Traxoprodil, a selective antagonist of the NR2B subunit of the NMDA receptor, potentiates the antidepressant-like effects of certain antidepressant drugs in the forced swim test in mice” (Metabolic Brain Disease, 2016)
Counter-ions that a name gives are not always drawn. Values belong to the compound of their own block, whether it stands above or below them.

Tests used:
mice [1] = assay: Spontaneous locomotor activity (Opto-Varimex-4 Auto-Track); assay type: in vivo, Albino Swiss mice; settings: for Distance traveled: mean ± SEM; for effects on locomotor activity: administered either alone or combined together, doses of Table 2 (traxoprodil 10 and 20 mg/kg), two-way ANOVA
Experimental: In order to avoid the risk of obtaining the false positive/negative effects in the FST caused by a possible influence of the tested drugs on the locomotor activity, spontaneous locomotor activity was measured using an animal activity meter Opto-Varimex-4 Auto-Track (Columbus Instruments, USA). The device consists of four transparent cages with a lid (43 × 43 × 32 cm), a set of four infrared emitters (each emitter has 16 laser beams), and four detectors monitoring animal movements. Each mouse was placed individually into the cage for 10 min. Spontaneous locomotor activity was evaluated between the 2nd and the 6th min, which corresponds with the time interval analyzed in the FST.
The results obtained in this test were presented as an arithmetic average distance (given in cm) traveled by a mouse ± SEM for each experimental group.

mice [2] = assay: Forced swim test (FST) in mice; assay type: in vivo, Albino Swiss mice; settings: for immobility time in FST vs control group: Fig. 1
Experimental: Each mouse was placed individually into a glass cylinder (height 25 cm, diameter 10 cm) containing 12–15 cm of water at 23–25 °C. The animal was left in the cylinder for 6 min. The total duration of immobility was recorded during the last 4 min of the 6-min testing period. The mouse was judged to be immobile when it ceased struggling and remained floating motionless in the water, making only the movements necessary to keep its head above the water level.

[3] = Determination of antidepressants and traxoprodil in brains by HPLC; settings: for Antidepressants concentration in brain / concentration at 60 min: 60 min before decapitation, mean ± SEM; for change of concentration in brain tissue after joint administration with traxoprodil: traxoprodil 10 mg/kg co-administered, Student's t-test vs drug + saline; for concentration at 60 min: Albino Swiss, mouse, brain, intraperitoneal
Experimental: Sixty minutes following administration of studied antidepressant drugs with or without traxoprodil, mice were decapitated to collect brains for pharmacokinetic studies. Immediately after the decapitation, the brains were dissected from the skull, washed with 0.9 % NaCl and frozen at −25 °C.
Brain concentrations of the studied antidepressants and traxoprodil were assayed by high performance liquid chromatography (HPLC) methods. The brains were homogenized in distilled water (1 : 4, w/v) with a tissue homogenizer TH220 (Omni International, Inc., Warrenton, VA, USA). For all studied antidepressant drugs, the extraction from brain homogenates were performed using the mixture of ethyl acetate : hexane (30 : 70, v/v). Amitriptyline (2 μg/ml) was used as an internal standard (IS) for imipramine and paroxetine (200 ng/ml) for fluoxetine and escitalopram. In order to isolate imipramine and its metabolite desipramine, to brain homogenate (0.5 ml) containing these drugs the IS was added and the samples were alkalized with 250 μl of 4 M NaOH. Then the samples were extracted with 5 ml of the extraction reagent by shaking for 20 min (IKA Vibrax VXR, Germany). After centrifugation at 3000 rpm for 20 min (Universal 32, Hettich, Germany), the organic layer was transferred to a new tube containing a 200 μl solution of 0.1 M H2SO4 and methanol (90 : 10, v/v), shaken for 0.5 h and then centrifuged for 15 min (3000 rpm). The organic layer was discarded and a 50 μl aliquot of the acidic solution was injected into the HPLC system. In the case of escitalopram, the procedure was similar with the exception that the extraction with an organic reagent was repeated two times, 1 ml of brain homogenate was used, and the volume of the acidic phase was 100 μl. In turn, to 1 ml of brain homogenates containing fluoxetine the IS was added and the samples were alkalized with 500 μl of 4 M NaOH. After the addition of 1 ml of the concentrated NaCl solution (10 g/50 ml), the samples were vortexed for 15 s and 5 ml of the extraction reagent was added. Then the samples were shaken for 20 min and centrifuged for 15 min at 3000 rpm. After the centrifugation, the organic layer was transferred into a conical glass tube and evaporated to dryness at 37 °C under a gentle stream of nitrogen in a water bath. The residue was dissolved with 100 μl of methanol and 50 μl of this solution was injected into the HPLC system.
The HPLC system (Thermo Separation Products, San Jose, CA, USA) consisted of a P100 isocratic pump, a UV100 variable-wavelength UV/VIS detector, a Rheodyne 7125 injector (Rheodyne, Cotati, CA, USA) with a 50 μl sample loop, and a Chromjet SP4400 computing integrator.
All analyses were performed on a 250 × 4.0 mm LiChrospher®100 RP-18 column with a particle size of 5 μm (Merck, Darmstadt, Germany) protected with a guard column (4 × 4 mm) with the same packing material. The mobile phase consisting of 50 mM potassium dihydrogen phosphate buffer (pH = 4.5) and acetonitrile was mixed at a ratio of 60 : 40 (v/v) for imipramine and fluoxetine, and 65 : 35 (v/v) for escitalopram and run at 1 ml/min. Chromatographic analysis was carried out at 21 °C and the analytical wavelength of 227 nm for fluoxetine, 240 nm for escitalopram, and 214 nm for imipramine.
In order to determine traxoprodil concentrations in mice brain, to 1 ml of brain homogenate containing this compound 2 ml of methanol was added and the samples were briefly vortexed and then shaken vigorously for 10 min (IKA Vibrax VXR, Germany) to precipitate proteins. After centrifugation for 20 min at 3000 rpm the supernatant (2 ml) was transferred into a conical glass tube and evaporated to dryness at 45 °C under a gentle stream of nitrogen in a water bath. The residue was dissolved with 100 μl of methanol and 40 μl of this solution were injected into the HPLC system.

mice [4] = tested on: mice; set-up: method as in Poleszak et al. [2013]; settings: ref Poleszak et al. [2013]; cited from earlier work

SMILES: N[C@@H](Cc1ccc(Cl)cc1)C(=O)O (racemic) [p-CPA, p-chlorophenylalanine]
Distance traveled (mice [1]; Table 2 (E): p-CPA 200 mg/kg i.p. once daily over three days + saline): 656.4 ± 107.4 cm
effects on locomotor activity (mice [1]): no statistically significant effects
immobility time in FST (mice [2]; p-CPA 200 mg/kg i.p. per 3 days, alone, Fig. 3a): no effect

SMILES: COc1ccccc1N1CCN(CCN(C(=O)C2CCCCC2)c2ccccn2)CC1 [WAY 100,635]
Distance traveled (mice [1]; Table 2 (F): WAY 0.1 mg/kg + saline i.p.): 639.0 ± 59.16 cm
effects on locomotor activity (mice [1]): no statistically significant effects
immobility time in FST (mice [2]; WAY 100,635 0.1 mg/kg i.p. alone, Fig. 3b): no effect

Antidepressants concentration in brain ([3]; imipramine 15 mg/kg + saline i.p., n=10): (101.0 ± 19.86) ng/g
Antidepressants concentration in brain ([3]; imipramine 15 mg/kg + traxoprodil 10 mg/kg i.p., n=10): (724.0 ± 109.0***) ng/g
change of concentration in brain tissue after joint administration with traxoprodil [3]: significant increase
SMILES: CNCCCN1c2ccccc2CCc2ccccc21 [desipramine]

concentration at 60 min ([3]; 2 mg/kg, Antidepressants concentration in brain, escitalopram 2 mg/kg + saline i.p., n=10): 296 ± 17.7 ng/g
concentration at 60 min ([3]; Antidepressants concentration in brain, escitalopram 2 mg/kg + traxoprodil 10 mg/kg i.p., n=10): 361 ± 20.5 ng/g
change of concentration in brain tissue after joint administration with traxoprodil [3]: significant increase
SMILES: CN(C)CCC[C@@]1(c2ccc(F)cc2)OCc2cc(C#N)ccc21 [escitalopram, escitalopram oxalate]
Distance traveled (mice [1]; Table 2 (C): escitalopram 2 mg/kg + saline i.p.): 957.1 ± 174.1 cm
effects on locomotor activity (mice [1]): no statistically significant effects
immobility time in FST (mice [2]; escitalopram 2 mg/kg given alone i.p., Fig. 2c): no effect

SMILES: CNCCC(Oc1ccc(C(F)(F)F)cc1)c1ccccc1 (centres unmarked) [fluoxetine, fluoxetine hydrochloride]
Distance traveled (mice [1]; Table 2 (B): fluoxetine 5 mg/kg + saline i.p.): 667.8 ± 111.1 cm
effects on locomotor activity (mice [1]): no statistically significant effects
immobility time in FST (mice [2]; fluoxetine 5 mg/kg given alone i.p., Fig. 2b): no effect

SMILES: CC(C(O)c1ccc(O)cc1)N1CCC(Cc2ccccc2)CC1 (centres unmarked) [ifenprodil]
dose range with antidepressant effect in the FST (mice [4]): 20 to 40 mg/kg

concentration at 60 min ([3]; 15 mg/kg, Antidepressants concentration in brain, imipramine 15 mg/kg + saline i.p., n=10): 2060 ± 253 ng/g
concentration at 60 min ([3]; Antidepressants concentration in brain, imipramine 15 mg/kg + traxoprodil 10 mg/kg i.p., n=10): 3210 ± 374 ng/g
SMILES: CN(C)CCCN1c2ccccc2CCc2ccccc21 [imipramine, imipramine hydrochloride]
Distance traveled (mice [1]; Table 2 (A): imipramine 15 mg/kg + saline i.p.): 492.3 ± 57.11 cm
effects on locomotor activity (mice [1]): no statistically significant effects
Distance traveled (mice [1]; imipramine 30 mg/kg i.p. 60 min before test, 2nd-6th min, n=8, Table 1): 653.9 ± 99.38 cm
immobility time in FST (mice [2]; imipramine 15 mg/kg given alone i.p., Fig. 2a): no effect

SMILES: CCOc1ccccc1OC(c1ccccc1)C1CNCCO1 (centres unmarked) [reboxetine, reboxetine mesylate]
Distance traveled (mice [1]; Table 2 (D): reboxetine 2.5 mg/kg + saline i.p.): 566.1 ± 54.75 cm
immobility time in FST (mice [2]; reboxetine 2.5 mg/kg given alone i.p., Fig. 2d): no effect

SMILES: Cc1nc2sccn2c(=O)c1CCN1CCC(=C(c2ccc(F)cc2)c2ccc(F)cc2)CC1 [ritanserin]
Distance traveled (mice [1]; Table 2 (G): ritanserin 4 mg/kg + saline i.p.): 607.5 ± 79.78 cm
effects on locomotor activity (mice [1]): no statistically significant effects
immobility time in FST (mice [2]; ritanserin 4 mg/kg i.p. alone, Fig. 3c): no effect

concentration at 60 min ([3]; 10 mg/kg, Traxoprodil concentration in brain, traxoprodil 10 mg/kg + saline ip, n=7–8): 76.4 ± 13.5 ng/g
concentration at 60 min ([3]; Traxoprodil concentration in brain, traxoprodil 10 mg/kg + escitalopram 2 mg/kg ip): 249 ± 49.2 ng/g
concentration at 60 min ([3]; Traxoprodil concentration in brain, traxoprodil 10 mg/kg + fluoxetine 5 mg/kg ip): 151 ± 10.3 ng/g
concentration at 60 min ([3]; Traxoprodil concentration in brain, traxoprodil 10 mg/kg + imipramine 15 mg/kg ip): 119 ± 22.5 ng/g
change of traxoprodil concentration in brain ([3]; joint administration with escitalopram vs traxoprodil group, t-test p < 0.01): significant increase
change of traxoprodil concentration in brain ([3]; joint administration with fluoxetine vs traxoprodil group, t-test p < 0.001): significant increase
change of traxoprodil concentration in brain ([3]; joint administration with imipramine vs traxoprodil group, t-test p > 0.05): No statistically significant changes
SMILES: C[C@@H]([C@@H](O)c1ccc(O)cc1)N1CCC(O)(c2ccccc2)CC1 [traxoprodil]
Distance traveled (mice [1]; Table 2 (A): traxoprodil 10 mg/kg + saline i.p.): 629.1 ± 79.29 cm
Distance traveled (mice [1]; Table 2 (B): traxoprodil 10 mg/kg + saline i.p.): 629.1 ± 79.29 cm
Distance traveled (mice [1]; Table 2 (C): traxoprodil 10 mg/kg + saline i.p.): 986.8 ± 278.5 cm
Distance traveled (mice [1]; Table 2 (D): traxoprodil 10 mg/kg + saline i.p.): 629.1 ± 79.29 cm
Distance traveled (mice [1]; Table 2 (E): traxoprodil 20 mg/kg + saline i.p.): 731.1 ± 145.1 cm
Distance traveled (mice [1]; Table 2 (F): traxoprodil 20 mg/kg + saline i.p.): 687.5 ± 71.45 cm
Distance traveled (mice [1]; Table 2 (G): traxoprodil 20 mg/kg + saline i.p.): 687.5 ± 71.45 cm
effects on locomotor activity (mice [1]): no statistically significant effects
effect on locomotor activity versus control group (mice [1]; all tested doses (5, 10, 20, and 40 mg/kg), one-way ANOVA): no statistically significant effect
Distance traveled (mice [1]; traxoprodil 5 mg/kg i.p. 60 min before test, 2nd-6th min, n=8, Table 1): 915.0 ± 92.10 cm
Distance traveled (mice [1]; traxoprodil 10 mg/kg i.p. 60 min before test, 2nd-6th min, n=8, Table 1): 738.5 ± 49.93 cm
Distance traveled (mice [1]; traxoprodil 20 mg/kg i.p. 60 min before test, 2nd-6th min, n=8, Table 1): 912.0 ± 75.87 cm
Distance traveled (mice [1]; traxoprodil 40 mg/kg i.p. 60 min before test, 2nd-6th min, n=8, Table 1): 789.1 ± 119.8 cm
FST effect compared with imipramine at an active dose (mice [2]; highest traxoprodil dose used (40 mg/kg) vs imipramine 30 mg/kg): effect similar to the action of imipramine
immobility time in FST vs control group (mice [2]; traxoprodil 5 mg/kg i.p. 60 min before test): no statistically significant effect
immobility time in FST (mice [2]; traxoprodil 10 mg/kg given alone i.p., Fig. 2a): no effect
immobility time in FST vs control group (mice [2]; traxoprodil 10 mg/kg i.p. 60 min before test): no statistically significant effect
immobility time in FST vs control group (mice [2]; traxoprodil 20 mg/kg i.p. 60 min before test): significantly reduced
immobility time in FST (mice [2]; traxoprodil 20 mg/kg i.p., WAY 100,635 experiment, Fig. 3b): significantly reduced
immobility time in FST (mice [2]; traxoprodil 20 mg/kg i.p., p-CPA experiment, Fig. 3a): significantly reduced
immobility time in FST (mice [2]; traxoprodil 20 mg/kg i.p., ritanserin experiment, Fig. 3c): significantly reduced
immobility time in FST vs control group (mice [2]; traxoprodil 40 mg/kg i.p. 60 min before test): significantly reduced
